The test system of this experiment is MDA-MB-231 triple negative breast cancer cells. The following applies: paclitaxel 5 mg/kg.

Structures are written as SMILES. Read-outs that look alike come from different tables or passages of the source.

Excerpt: After implanting MDA-MB-231 triple negative breast cancer cells to the nude mouse, the tumor has been grown to the 200 mm^3 volume. […] The tumor growth has been observed for 27 days.
The tumor volume and shape in the nude mouse have been observed for 27 days.

For `CC(=O)O[C@H]1C(=O)[C@@]2(C)[C@H]([C@H](OC(=O)c3ccccc3)[C@]3(O)C[C@H](OC(=O)[C@H](O)[C@@H](NC(=O)c4ccccc4)c4ccccc4)C(C)=C1C3(C)C)[C@]1(OC(C)=O)CO[C@@H]1C[C@@H]2O` [Paclitaxel, paclitaxel, reference compound], the “volume of tumor, Mean ± S.E.” value (day 0) is recorded as 277.1 ± 16.2; the “volume of tumor, Mean ± S.E.” value (day 3) is reported as 354.3 ± 6.3; the “volume of tumor, Mean ± S.E.” value (day 6) was 437.9 ± 20.8; the “volume of tumor, Mean ± S.E.” value (day 12) was 716.8 ± 72.9; the “volume of tumor, Mean ± S.E.” value (day 15) was 906.2 ± 88.2; the “volume of tumor, Mean ± S.E.” value (day 18) is listed as 1161.2 ± 86.4. For the same molecule, the “volume of tumor, Mean ± S.E.” value was found to be 1421.7 ± 82.6 (day 21), 1760.2 ± 83.8 (day 24) and 2136.0 ± 125.9 (day 27).

The values are drawn from patent publication US10285979B2, “Breast cancer therapeutic agent containing 5′-hydroxy-5-nitro-indirubin-3′-oxime as active ingredient” (ANYGEN CO., LTD., priority 2016, dated 2019).
